Reference: patent US20050208151A1, “Treatment of rheumatoid arthritis with FLIP antagonists” (Entelos, Inc., priority 2003, published 2005)

Experiments:
[1] = tested on: MNC and macrophages from RA synovial fluid; experiment: uptake of FITC-labeled oligonucleotides by flow cytometry; format: cell-based, human; settings: 10-20 μM, 24h, 70% ETOH fixed cells
Description: MNC and macrophages from RA synovial fluid are incubated for 24h with FITC-labeled antisense phosphorothioate oligodeoxynucleotides (10-20 μM) comprising the FLIP initiation codon (5′-[…]-3′) (SEQ ID NO: 2). A nonsense oligonucleotides is used as negative control (for example; 5′-TGGATCCGACATGTCAGA-3′) (SEQ ID NO: 3). Uptake of the FITC-labeled oligonucleotides are measured by flow cytometry on 70% ETOH fixed cells. A 80-90% transfection efficiency is expected. A general caspase inhibitor (e.g., 20 μM zVAD.fmk) is used as negative control in all apoptosis assays. As a positive control of macrophage apoptosis, the cells are treated with 50 μM of the phosphatidylinositol 3-kinase inhibitor LY294002 for 24 h.

rheumatoid arthritis = settings: methotrexate treatment; level after 6 months therapy; cited from earlier work
[2] = tested on: RA patients' synovial macrophages; settings: Fas agonist with vs without BIS, which blocked FLIP expression; cited from earlier work

Compound: 5′-GACTTCAGCAGACATCCTAC-3′ (DNA, all phosphorothioate, methylation of C not given here; FITC label; listed as Homo sapiens) [FITC-labeled antisense phosphorothioate oligodeoxynucleotides comprising the FLIP initiation codon]
- transfection efficiency (uptake of FITC-labeled oligonucleotides) [1]: 80-90%

Compound: CN(Cc1cnc2nc(N)nc(N)c2n1)c1ccc(C(=O)N[C@@H](CCC(=O)O)C(=O)O)cc1 [Methotrexate, methotrexate]
- decrease in rate of cartilage degradation (rheumatoid arthritis): approximately 17%
- decrease in synovial cell density (rheumatoid arthritis): approximately 33%

Compound: CN(C)CCCn1cc(C2=C(c3c[nH]c4ccccc34)C(=O)NC2=O)c2ccccc21 [bisinodylmaleimide I]
- increase in macrophage apoptosis [2]: ~9 fold
